Test system: peach aphid (Myzus persicae)
Assay: Insecticidal test against peach aphid, infested Chinese cabbage leaves sprayed
Assay type: in vivo
Conditions: peach aphid (Myzus persicae) on Chinese cabbage leaves, sprayed with 500 ppm composition unless otherwise stated, mortality assessed after 3 days
Outline: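 Aphid-infested Chinese cabbage leaves were sprayed with compound at 500 ppm unless otherwise stated, formulated in acetone/ethanol diluted with water containing 0.05% Synperonic NP8. Mortality was assessed after 3 days.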

SMILES	Score (grading of mortality)
CN1C2CCC1CC(C#N)(c1cncc(N)c1)C2 (stereo not drawn) [Compound 134, exo-3-(5-aminopyrid-3-yl)-endo-3-cyano-8-methyl-8-azabicyclo[3.2.1]octane]	A (A indicates 80-100% mortality)
N#CC1(c2cncc(Cl)c2)CC2CCC(C1)N2C(C(N)=O)c1ccccc1 (stereo not drawn) [Compound 135, exo-3-(5-chloropyrid-3-yl)-endo-3-cyano-8-(a-carbamylbenzyl)-8-azabicyclo[3.2.1]octane]	A (A indicates 80-100% mortality)
N#CC1(c2cncc(Cl)c2)CC2CCC(C1)N2c1cccc(C(F)(F)F)n1 (stereo not shown) [Compound 136]	C (C indicates less than 40% mortality)
N#CC1(c2cncc(Cl)c2)CC2CCC(C1)N2c1cccc(Cl)n1 (stereo not shown) [Compound 137]	C (C indicates less than 40% mortality)
N#CC1(c2cncc(Cl)c2)CC2CCC(C1)N2C(=S)S (stereo not drawn) [Compound 138, exo-3-(5-chloropyrid-3-yl)-endo-3-cyano-8-(mercaptothiocarbonyl)-8-azabicyclo[3.2.1]octane]	A (A indicates 80-100% mortality)
CC(C)(C)N1C2CCC1CC(C#N)(c1cncc(Cl)c1)C2 (stereo not drawn) [Compound 139, exo-3-(5-chloropyrid-3-yl)-endo-3-cyano-8-(tert-butyl)-8-azabicyclo[3.2.1]octane]	A (A indicates 80-100% mortality)
CCOC(=O)CCN1C2CCC1CC(C#N)(c1cncc(Cl)c1)C2 (stereo not drawn) [Compound 140, exo-3-(5-chloropyrid-3-yl)-endo-3-cyano-8-(2-(ethoxycarbonyl)ethyl)-8-azabicyclo[3.2.1]octane]	A (A indicates 80-100% mortality)
N#CC1(c2cncc(Cl)c2)CC2CCC(C1)N2CCC(=O)O (stereo not drawn) [Compound 141, exo-3-(5-chloropyrid-3-yl)-endo-3-cyano-8-(2-carboxyethyl)-8-azabicyclo[3.2.1]octane]	A (A indicates 80-100% mortality)
N#CC1(c2cncc(Cl)c2)CC2CCC(C1)N2CC(F)F (stereo not drawn) [Compound 142, exo-3-(5-chloropyrid-3-yl)-endo-3-cyano-8-(2,2-difluoroethyl)-8-azabicyclo[3.2.1]octane]	A (A indicates 80-100% mortality)
N#CC1(c2cncc(Br)c2)CC2CCC(C1)N2CC(F)(F)F (stereo not shown) [Compound 143]	A (A indicates 80-100% mortality)
N#CC1(c2cncc(Cl)c2)CC2CCC(C1)N2C(=O)F (stereo not drawn) [Compound 144, exo-3-(5-chloropyrid-3-yl)-endo-3-cyano-8-(fluorocarbonyl)-8-azabicyclo[3.2.1]octane]	A (A indicates 80-100% mortality)
CN(C(=O)N1C2CCC1CC(C#N)(c1cncc(Cl)c1)C2)c1ccccc1 (stereo not shown) [Compound 145]	A (A indicates 80-100% mortality)
CC(C)(C)NC(=O)N1C2CCC1CC(C#N)(c1cncc(Cl)c1)C2 (stereo not drawn) [Compound 146, exo-3-(5-chloropyrid-3-yl)-endo-3-cyano-8-(tert-butylcarbamyl)-8-azabicyclo[3.2.1]octane]	A (A indicates 80-100% mortality)
CN1C2CCC1CC(C#N)(c1cncc(I)c1)C2 (stereo not drawn) [Compound 147, exo-3-(5-iodopyrid-3-yl)-endo-3-cyano-8-methyl-8-azabicyclo[3.2.1]octane]	A (A indicates 80-100% mortality)
CN1C2CCC1CC(C#N)(c1cncc(O)c1)C2 (stereo not drawn) [Compound 148, exo-3-(5-hydroxypyrid-3-yl)-endo-3-cyano-8-methyl-8-azabicyclo[3.2.1]octane]	B (B indicates 40-79% mortality)
N#CC1(c2cncc(Cl)c2)CC2CCC(C1)N2C(=O)N1CCOCC1 (stereo not shown) [Compound 149]	A (A indicates 80-100% mortality)
CC(C)N(C(=O)N1C2CCC1CC(C#N)(c1cncc(Cl)c1)C2)C(C)C (stereo not drawn) [Compound 150, exo-3-(5-chloropyrid-3-yl)-endo-3-cyano-8-(diisopropylcarbamyl)-8-azabicyclo[3.2.1]octane]	A (A indicates 80-100% mortality)
N#CC1(c2cncc(Cl)c2)CC2CCC(C1)N2c1c(F)c(F)c(F)c(F)c1F (stereo not drawn) [Compound 151, exo-3-(5-chloropyrid-3-yl)-endo-3-cyano-8-pentafluorophenyl-8-azabicyclo[3.2.1]octane]	A (A indicates 80-100% mortality)
N#CC1(c2cncc(Cl)c2)CC2CCC(C1)N2c1cc(Cl)ncn1 (stereo not shown) [Compound 152]	A (A indicates 80-100% mortality)
CC(=O)Nc1nc(CN2C3CCC2CC(C#N)(c2cncc(Cl)c2)C3)cs1 (stereo not shown) [Compound 153]	A (A indicates 80-100% mortality)
N#CC1(c2cncc(Cl)c2)CC2CCC(C1)N2C(=O)Nc1ccc(F)c(Cl)c1 (stereo not shown) [Compound 154]	B (B indicates 40-79% mortality)
N#CC1(c2cncc(Cl)c2)CC2CCC(C1)N2c1cncc(Cl)c1 (stereo not shown) [Compound 155]	A (A indicates 80-100% mortality)

SMILES	Score (grading of mortality)
N#CC1(c2cncc(Cl)c2)CC2CCC(C1)N2C(=O)c1cnccc1C(F)(F)F (stereo not shown) [Compound 157]	C (C indicates less than 40% mortality)
N#CC1(c2cncc(Cl)c2)CC2CCC(C1)N2Cc1nnsc1Cl (stereo not drawn) [Compound 158, exo-3-(5-chloropyrid-3-yl)-endo-3-cyano-8-((5-chloro-1,2,3-thiadiazol-4-yl)methyl)-8-azabicyclo[3.2.1]octane]	A (A indicates 80-100% mortality)
CC(C=O)(c1ccccc1)N1C2CCC1CC(C#N)(c1cncc(Cl)c1)C2 (stereo not drawn) [Compound 159, exo-3-(5-chloropyrid-3-yl)-endo-3-cyano-8-(2-phenyl-3-oxo-prop-2-yl)-8-azabicyclo[3.2.1]octane]	A (A indicates 80-100% mortality)
N#CC1(c2cncc(Cl)c2)CC2CCC(C1)N2CCCC(F)(F)F (stereo not shown) [Compound 160]	A (A indicates 80-100% mortality)
COc1cncc(C2(C#N)CC3CCC(C2)N3CC(F)(F)F)c1 (stereo not shown) [Compound 161]	A (A indicates 80-100% mortality)
CCOC(=O)c1ccc(N2C3CCC2CC(C#N)(c2cncc(Cl)c2)C3)cc1 (stereo not shown) [Compound 162]	C (C indicates less than 40% mortality)
N#CC1(c2cnc(F)c(Cl)c2)CC2CCC(C1)N2CC(F)(F)F (stereo not shown) [Compound 163]	C (C indicates less than 40% mortality)
CC(=O)Nc1cncc(C2(C#N)CC3CCC(C2)N3C)c1 (stereo not drawn) [Compound 165, exo-3-(5-acetylamidopyrid-3-yl)-endo-3-cyano-8-methyl-8-azabicyclo[3.2.1]octane]	A (A indicates 80-100% mortality)
COc1cncc(C2(C#N)CC3CCC(C2)N3CC#N)c1 (stereo not shown) [Compound 166]	A (A indicates 80-100% mortality)
N#CC1(c2cncc(Cl)c2)CC2CCC(C1)N2c1nc(CCl)ns1 (stereo not shown) [Compound 167]	A (A indicates 80-100% mortality)
N#CC1(c2cncc(Cl)c2)CC2CCC(C1)N2c1ncc(Cl)s1 (stereo not drawn) [Compound 168, exo-3-(5-chloropyrid-3-yl)-endo-3-cyano-8-(5-chlorothiazol-2-yl)-8-azabicyclo[3.2.1]octane]	A (A indicates 80-100% mortality)
N#CN1C2CCC1CC(C#N)(c1cncc(Cl)c1)C2 (stereo not drawn) [Compound 169, exo-3-(5-chloropyrid-3-yl)-endo-3-cyano-8-cyano-8-azabicyclo[3.2.1]octane]	A (A indicates 80-100% mortality)
N#CC1(c2cncc(Cl)c2)CC2CCC(C1)N2c1ccc(C(=O)O)cc1 (stereo not shown) [Compound 170]	B (B indicates 40-79% mortality)
C=COC(=O)N1C2CCC1CC(C#N)(c1cncc(OC)c1)C2 (stereo not shown) [Compound 171]	A (A indicates 80-100% mortality)
COc1cncc(C2(C#N)CC3CCC(C2)N3)c1 (stereo not shown) [Compound 172]	A (A indicates 80-100% mortality)
N#CC1(c2cncc(Cl)c2)CC2CCC(C1)N2c1ccc(Cl)cc1 (stereo not shown) [Compound 173]	A (A indicates 80-100% mortality)
CN1C2CCC1CC(C#N)(c1cncc(C(F)(F)F)c1)C2 (stereo not drawn) [Compound 174, exo-3-(5-trifluoromethylpyrid-3-yl)-endo-3-cyano-8-methyl-8-azabicyclo[3.2.1]octane]	A (A indicates 80-100% mortality)
C=CC(C)(c1ccccc1)N1C2CCC1CC(C#N)(c1cncc(Cl)c1)C2 (stereo not drawn) [Compound 175, exo-3-(5-chloropyrid-3-yl)-endo-3-cyano-8-(2-phenylbut-3-en-2-yl)-8-azabicyclo[3.2.1]octane]	A (A indicates 80-100% mortality)
CC(CO)(c1ccccc1)N1C2CCC1CC(C#N)(c1cncc(Cl)c1)C2 (stereo not drawn) [Compound 176, exo-3-(5-chloropyrid-3-yl)-endo-3-cyano-8-(2-phenyl-3-hydroxyprop-2-yl)-8-azabicyclo[3.2.1]octane]	A (A indicates 80-100% mortality)
N#CC1(c2cncc(C(F)(F)F)c2)CC2CCC(C1)N2C=O (stereo not shown) [Compound 177]	A (A indicates 80-100% mortality)
CC(=O)OCC(C)(c1ccccc1)N1C2CCC1CC(C#N)(c1cncc(Cl)c1)C2 (stereo not drawn) [Compound 178, exo-3-(5-chloropyrid-3-yl)-endo-3-cyano-8-(2-phenyl-3-acetoxyprop-2-yl)-8-azabicyclo[3.2.1]octane]	A (A indicates 80-100% mortality)

Reference: patent US6573275B1, “Bicyclic amines” (Syngenta Limited, priority 1995, dated 2003)
